Results reported in ChEMBL document CHEMBL4396887, “Five-Membered N-Heterocyclic Scaffolds as Novel Amino Bioisosteres at γ-Aminobutyric Acid (GABA) Type A Receptors and GABA Transporters” (J Med Chem, 2019).
Active and inactive are the calls of the source. The rule behind the calls is not given here.

What was measured:
[1] = molecular target: T1, GABA-A receptor; alpha-1/beta-2/gamma-2 (Homo sapiens) (UniProt P14867+P47870+P18507); assay: Agonist activity at recombinant human GABA-A alpha1beta2gamma2S receptor transiently expressed in human tsA201 cells incubated for 30 mins and measured up to 90 secs by FMP dye based FLIPR membrane potential blue assay; type: cell-based
[2] = molecular target: T1, GABA-A receptor; alpha-1/beta-2/gamma-2 (Homo sapiens); assay: Agonist activity at recombinant human GABA-A alpha1beta2gamma2S receptor transiently expressed in human tsA201 cells assessed as GABA-induced maximum response incubated for 30 mins and measured up to 90 secs by FMP dye based FLIPR membrane potential blue assay relative to GABA; type: cell-based
Homo sapiens [3] = organism: Homo sapiens; assay: Agonist activity at recombinant human GABA-A alpha3beta2gamma2S receptor transiently expressed in human tsA201 cells assessed as GABA-induced maximum response incubated for 30 mins and measured up to 90 secs by FMP dye based FLIPR membrane potential blue assay relative to GABA; type: cell-based
[4] = molecular target: T2, Gamma-aminobutyric acid receptor subunit alpha-4/beta-2/gamma-2 (Homo sapiens, UniProt P47870+P18507+P48169); assay: Agonist activity at recombinant human GABA-A alpha4beta2gamma2S receptor transiently expressed in human tsA201 cells incubated for 30 mins and measured up to 90 secs by FMP dye based FLIPR membrane potential blue assay; type: cell-based
[5] = molecular target: T2, Gamma-aminobutyric acid receptor subunit alpha-4/beta-2/gamma-2; assay: Agonist activity at recombinant human GABA-A alpha4beta2gamma2S receptor transiently expressed in human tsA201 cells assessed as GABA-induced maximum response incubated for 30 mins and measured up to 90 secs by FMP dye based FLIPR membrane potential blue assay relative to GABA; type: cell-based
[6] = molecular target: Gamma-aminobutyric acid receptor subunit alpha-5/beta-2/gamma-2 (Homo sapiens) (UniProt P47870+P18507+P31644); assay: Agonist activity at recombinant human GABA-A alpha5beta2gamma2S receptor transiently expressed in human tsA201 cells assessed as GABA-induced maximum response incubated for 30 mins and measured up to 90 secs by FMP dye based FLIPR membrane potential blue assay relative to GABA; type: cell-based
[7] = molecular target: Gamma-aminobutyric acid receptor subunit rho-1 (Homo sapiens, UniProt P24046); assay: Agonist activity at recombinant human GABA-A rho-1 receptor transiently expressed in human tsA201 cells assessed as GABA-induced maximum response incubated for 30 mins and measured up to 90 secs by FMP dye based FLIPR membrane potential blue assay relative to GABA; type: cell-based
Chain of Gamma-aminobutyric acid receptor subunit rho-1 (P24046 whole entry): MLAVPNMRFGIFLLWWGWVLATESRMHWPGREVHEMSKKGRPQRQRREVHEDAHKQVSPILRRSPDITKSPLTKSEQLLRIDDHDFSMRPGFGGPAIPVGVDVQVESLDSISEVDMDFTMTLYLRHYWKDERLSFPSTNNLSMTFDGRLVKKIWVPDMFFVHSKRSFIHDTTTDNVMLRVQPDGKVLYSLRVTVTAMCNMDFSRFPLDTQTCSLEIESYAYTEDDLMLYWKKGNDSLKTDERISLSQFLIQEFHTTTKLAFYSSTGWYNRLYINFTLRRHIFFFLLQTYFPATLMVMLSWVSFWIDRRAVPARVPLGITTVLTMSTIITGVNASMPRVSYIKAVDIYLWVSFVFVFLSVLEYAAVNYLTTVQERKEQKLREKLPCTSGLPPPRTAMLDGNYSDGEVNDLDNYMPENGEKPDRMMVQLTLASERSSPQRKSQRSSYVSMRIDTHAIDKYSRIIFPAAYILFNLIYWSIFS

[8] = molecular target: T2, Gamma-aminobutyric acid receptor subunit alpha-4/beta-2/gamma-2; assay: Agonist activity at recombinant human GABA-A alpha4beta2gamma2S receptor transiently expressed in human tsA201 cells at >= 100 uM incubated for 30 mins and measured up to 90 secs by FMP dye based FLIPR membrane potential blue assay; type: cell-based
[9] = molecular target: T1, GABA-A receptor; alpha-1/beta-2/gamma-2 (Homo sapiens); assay: Agonist activity at recombinant human GABA-A alpha1beta2gamma2S receptor transiently expressed in human tsA201 cells at >= 10 uM incubated for 30 mins and measured up to 90 secs by FMP dye based FLIPR membrane potential blue assay; type: cell-based
Homo sapiens [10] = organism: Homo sapiens; assay: Agonist activity at recombinant human GABA-A alpha3beta2gamma2S receptor transiently expressed in human tsA201 cells at >= 30 uM incubated for 30 mins and measured up to 90 secs by FMP dye based FLIPR membrane potential blue assay; type: cell-based
[11] = molecular target: Sodium- and chloride-dependent GABA transporter 1 (Homo sapiens, UniProt P30531); assay: Inhibition of human GAT1 expressed in Flp-In CHO cells assessed as reduction in [3H]GABA uptake at 100 uM incubated for 3 mins by liquid scintillation counting method relative to control; type: cell-based
Chain of Sodium- and chloride-dependent GABA transporter 1 (P30531 whole entry, looked up): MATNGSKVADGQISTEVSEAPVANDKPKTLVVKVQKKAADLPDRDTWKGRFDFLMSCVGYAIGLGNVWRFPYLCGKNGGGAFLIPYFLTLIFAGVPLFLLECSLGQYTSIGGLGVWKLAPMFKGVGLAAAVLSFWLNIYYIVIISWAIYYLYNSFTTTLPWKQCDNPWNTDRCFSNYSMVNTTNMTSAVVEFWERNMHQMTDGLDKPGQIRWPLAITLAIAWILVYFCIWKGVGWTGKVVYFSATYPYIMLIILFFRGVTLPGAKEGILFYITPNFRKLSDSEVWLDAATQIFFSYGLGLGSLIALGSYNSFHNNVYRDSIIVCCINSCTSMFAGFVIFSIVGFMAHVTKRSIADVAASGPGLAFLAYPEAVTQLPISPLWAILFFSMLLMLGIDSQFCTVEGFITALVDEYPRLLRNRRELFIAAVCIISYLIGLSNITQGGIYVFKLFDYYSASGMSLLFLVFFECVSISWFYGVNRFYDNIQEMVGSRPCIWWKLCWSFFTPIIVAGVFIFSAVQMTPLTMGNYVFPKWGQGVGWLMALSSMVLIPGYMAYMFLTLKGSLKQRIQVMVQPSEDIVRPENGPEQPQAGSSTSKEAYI

[12] = molecular target: T3, Sodium- and chloride-dependent GABA transporter 2 (Homo sapiens) (UniProt Q9NSD5); assay: Inhibition of human GAT2 expressed in Flp-In CHO cells assessed as reduction in [3H]GABA uptake at 100 uM incubated for 3 mins by liquid scintillation counting method relative to control; type: cell-based
T3 sequence (whole entry): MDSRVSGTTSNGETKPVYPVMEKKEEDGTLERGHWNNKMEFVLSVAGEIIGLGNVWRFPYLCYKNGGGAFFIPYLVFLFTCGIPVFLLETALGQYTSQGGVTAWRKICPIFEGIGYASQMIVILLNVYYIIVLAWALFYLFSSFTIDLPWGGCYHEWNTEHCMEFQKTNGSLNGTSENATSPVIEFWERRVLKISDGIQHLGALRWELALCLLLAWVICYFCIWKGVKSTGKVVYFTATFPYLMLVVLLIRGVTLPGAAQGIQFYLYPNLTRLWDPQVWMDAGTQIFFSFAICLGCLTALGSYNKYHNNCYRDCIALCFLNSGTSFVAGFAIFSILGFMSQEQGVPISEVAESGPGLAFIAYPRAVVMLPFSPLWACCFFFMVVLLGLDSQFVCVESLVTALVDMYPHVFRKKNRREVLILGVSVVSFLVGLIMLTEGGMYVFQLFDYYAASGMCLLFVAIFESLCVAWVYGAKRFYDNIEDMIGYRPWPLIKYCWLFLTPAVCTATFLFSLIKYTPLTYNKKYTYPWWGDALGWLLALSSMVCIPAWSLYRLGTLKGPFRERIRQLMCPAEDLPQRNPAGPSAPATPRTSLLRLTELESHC

[13] = molecular target: T4, Sodium- and chloride-dependent GABA transporter 3 (Homo sapiens) (UniProt P48066); assay: Inhibition of human GAT3 expressed in Flp-In CHO cells assessed as reduction in [3H]GABA uptake at 100 uM incubated for 3 mins by liquid scintillation counting method relative to control; type: cell-based
T4 sequence (whole entry): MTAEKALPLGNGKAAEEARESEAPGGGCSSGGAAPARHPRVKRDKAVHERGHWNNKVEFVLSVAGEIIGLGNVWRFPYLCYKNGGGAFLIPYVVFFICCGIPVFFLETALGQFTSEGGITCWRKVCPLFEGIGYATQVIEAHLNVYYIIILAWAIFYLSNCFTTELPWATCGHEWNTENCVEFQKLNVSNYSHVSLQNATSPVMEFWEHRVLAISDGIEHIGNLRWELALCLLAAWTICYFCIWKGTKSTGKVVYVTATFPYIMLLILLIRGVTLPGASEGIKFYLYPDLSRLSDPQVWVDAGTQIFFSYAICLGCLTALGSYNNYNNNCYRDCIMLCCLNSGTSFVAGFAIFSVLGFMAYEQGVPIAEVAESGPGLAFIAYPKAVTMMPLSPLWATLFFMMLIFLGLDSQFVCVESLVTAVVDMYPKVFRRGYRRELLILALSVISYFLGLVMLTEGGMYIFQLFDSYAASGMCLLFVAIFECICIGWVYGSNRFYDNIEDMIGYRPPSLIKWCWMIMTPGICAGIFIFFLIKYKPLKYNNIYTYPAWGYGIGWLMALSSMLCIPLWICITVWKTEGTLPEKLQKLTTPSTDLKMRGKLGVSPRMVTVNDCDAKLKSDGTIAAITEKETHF

[14] = molecular target: T5, Sodium- and chloride-dependent betaine transporter (Homo sapiens) (UniProt P48065); assay: Inhibition of human BGT1 expressed in Flp-In CHO cells assessed as reduction in [3H]GABA uptake at 100 uM incubated for 3 mins by liquid scintillation counting method relative to control; type: cell-based
T5 sequence (whole entry): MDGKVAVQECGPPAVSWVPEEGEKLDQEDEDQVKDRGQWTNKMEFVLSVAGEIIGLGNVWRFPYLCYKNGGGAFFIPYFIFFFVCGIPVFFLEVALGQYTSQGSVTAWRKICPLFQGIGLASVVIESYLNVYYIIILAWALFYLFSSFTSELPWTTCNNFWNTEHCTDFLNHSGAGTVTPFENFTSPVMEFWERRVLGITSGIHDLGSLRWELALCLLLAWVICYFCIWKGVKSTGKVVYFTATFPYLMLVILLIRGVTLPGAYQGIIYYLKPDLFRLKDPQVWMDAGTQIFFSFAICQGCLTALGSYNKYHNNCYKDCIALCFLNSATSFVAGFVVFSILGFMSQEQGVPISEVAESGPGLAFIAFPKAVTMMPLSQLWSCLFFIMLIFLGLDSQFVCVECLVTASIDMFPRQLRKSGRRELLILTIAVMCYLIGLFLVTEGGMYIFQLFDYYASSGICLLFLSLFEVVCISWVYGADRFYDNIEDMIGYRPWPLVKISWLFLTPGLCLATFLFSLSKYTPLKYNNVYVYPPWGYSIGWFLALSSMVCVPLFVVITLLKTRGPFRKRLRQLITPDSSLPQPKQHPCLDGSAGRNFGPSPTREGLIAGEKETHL

Homo sapiens [15] = organism: Homo sapiens

pEC50 [1]: inactive | Rmax [2]: inactive | pEC50 [4]: inactive | Rmax [5]: inactive | Rmax [6]: 34% | Rmax [7]: 31% | Activity [8]: Active | Activity [9]: Active | inhibition [11]: > 30% | inhibition [12]: > 30% | inhibition [13]: > 30% | inhibition [14]: > 30% | pEC50 (Homo sapiens [15]): inactive
SMILES: CC(C(=O)O)C1CSC(N)=N1 (stereo in doubt; l-10b)
Rmax (Homo sapiens [3]): inactive | Activity (Homo sapiens [10]): Active
